Assay results as given in patent publication US20250221943A1, “POLYDOPAMINE CO-POLYMER NANOPARTICLES” (CAMBRIDGE ENTERPRISE LIMITED, priority 2022, published 2025).
Each block holds one compound with its values, some of them ahead of it.

Columns and labels:
[1] = Loading content by UV-Vis; format: physicochemical; conditions: for loading content of the drug in F127@PDA NPs: physical adsorption, conventional method
Experimental: F127@PDA NPs (5 mg) was dissolved in 10 mM Tris buffer (5 mL) and Fluorescein-TEG-NH2 (10 mg, 2 wt eq.) dissolved in 0.5 mL ethanol was added dropwise. The mixture was protected from direct sunlight and stirred over night at room temperature. Excess Fluorescein-TEG-NH2 was removed washing with Milli-Q water using Vivaspin 20 (Satorius, UK) centrifugal concentrators (10 kDa MWCO) for 15 min at 4000 rpm until the supernatant was colourless, followed by 3 days dialysis against water with 12-14 kDa MWCO dialysis bags.
To assess the loading capacity, absorption of SN38 was investigated adapting a method by Wang et al.^[90] A suspension of 10 mg F127@PDA NPs (1 mg/mL) and 2.5 mg SN38 (0.25 wt eq.) in DMSO:H2O=1:10 (10 mL) were sonicated for 30 min, followed by stirring at room temperature for 72 hours. To remove free drug, the reaction mixture was first centrifuged at 2000 rpm for 5 min. The supernatant was collected and washed with Milli-Q water using Vivaspin 20 (Satorius, UK) centrifugal concentrators (10 kDa MWCO) for 15 min at 4000 rpm. The obtained particles were diluted in Milli-Q water, frozen in liquid nitrogen and lyophilised to yield a dark brown powder. The loading content of SN38 within the NPs was determined using UV-Vis. The absorbance of SN38@F127@PDA NPs at 382 nm was deducted by the F127@PDA absorbance and the loading content was calculated according to the following equation: (3).^[98]
F127@PDA NPs (5 mg) was dissolved in 10 mM Tris buffer (5 mL) and the corresponding ligand 4-6 (10 mg, 2 wt eq.) dissolved in 0.5 mL ethanol was added dropwise. The mixture was protected from direct sunlight and stirred over night at room temperature. […]
A suspension of 10 mg F127@PDA NPs (1 mg/mL) and 2.5 mg of the corresponding drug (0.25 wt eq.) in DMSO:H2O=1:10 (10 mL) were sonicated for 30 min, followed by stirring at room temperature for 72 hours. […] The loading content of Gem and PTX within the NPs was determined using UV-Vis. The absorbance of the free drug in the supernatant was measured and the loading content was calculated according to the following equation: […]

PANC-1 [2] = test: Live-cell imaging (IncuCyte) cytotoxicity of SN38 and SN38@F127@PDA; format: cell-based, human; conditions: PANC-1, live-cell imaging, 72 h treatment
Experimental: (§1) All NPs were tested for cytotoxicity studies in AsPC-1, BxPC-3, MIA-PaCa-2, PANC-1 and ARPE-19. Cells were seeded into 96-well plates at concentration of 2000 cells/well, in 200 μl of complete growth medium and incubated at 37 C, 5% CO2 for 24 h. After overnight incubation, the cells were treated with different concentration of F127@PDA-40, F127@PDA-60 and F127@PDA-100 (0.01-100 μg/mL) dissolved in complete cell media, the same volume of water was added for the negative control. The plates were then inserted into the IncuCyte®S3 Live-Cell Analysis System (Sartorius) for real-time imaging. Treated plates were imaged every 3 h for 72 h under cell culture conditions with 10× objective using the brightfield channel. Mean cell confluence was calculated using the images taken from 3 random fields of view per well using the IncuCyte S3 v2017A software. All Incucyte experiments were performed in triplicate in three independent experiments. Relative confluence values were obtained by normalizing each value to the time zero value in each sample and normalised to the untreated control sample.
(§2) Cells were seeded into 96-well plates at concentration of 2000 cells/well, in 100 μl of complete growth medium and incubated at 37 C, 5% CO2 for 24 h. After overnight incubation, the cells were treated with SN38 and the same concentration of SN38@F127@PDA using various concentrations (0.0001 μM-1 μM). The plates were inserted into the IncuCyte®S3 Live-Cell Analysis System (Sartorius) for real-time imaging. Treated plates were imaged every 3 h for 72 h under cell culture conditions with 10× objective using the brightfield channel. Average cell confluence was calculated as described in the previous section. In addition to live cell imaging after 72 h incubation in the IncuCyte®S3 MTS assay was performed as described in the section above.

AsPC-1 [3] = test: as above; format: cell-based, human; conditions: AsPC-1, live-cell imaging, 72 h treatment
Experimental: as §1, §2

BxPC-3 [4] = test: as above; format: cell-based, human; conditions: BxPc-3, live-cell imaging, 72 h treatment
Experimental: as §1, §2

MIA PaCa-2 [5] = test: as above; format: cell-based, human; conditions: MIA PaCa-2, live-cell imaging, 72 h treatment
Experimental: as §1, §2

PANC-1 [6] = test: MTS assay cytotoxicity of SN38 and SN38@F127@PDA; format: cell-based, human; conditions: PANC-1, MTS, 72 h treatment
Experimental: (§3) Additionally, the effect of F127@PDA NPs on the viability of AsPC-1, BxPC-3, MIA PaCa-2, PANC-1 and ARPE-19 using MTS assay (Promega, USA.) Cells were seeded into clear 96-well plates containing 2000 cells/well in 100 μL complete growth medium and cultured for 24 h at 37° C. and 5% CO2. Subsequently, cells were treated with varying concentrations of F127@PDA_40, F127@PDA_60 and F127@PDA_100 (0.01-100 μg/mL) dissolved in complete growth media containing 0.1% water. After further 72 h incubation at 37° C. and 5% CO2, 20 μL of CelTiter 96® AQueous One Solution (Promega, USA) was added into each well and incubated at 37° C., 5% CO2 for 1-4 h, according to the manufacturer's instruction. The absorbance of each well was measured at 490 nm using a Spark plate reader (TECAN, CH). Control measurements included negative control of cells with DMEM, cells with DMEM containing 0.1% water, cell-free culture media (blank) and cell-free sample dilutions in culture media to evaluate potential sample interferences with MTS reagent. All experiments were conducted in biological triplicates. The percentage cell viability was calculated according to the following:
as §2

AsPC-1 [7] = test: MTS assay cytotoxicity of SN38 and SN38@F127@PDA; format: cell-based, human; conditions: AsPC-1, MTS, 72 h treatment
Experimental: as §3, §2

BxPC-3 [8] = test: MTS assay cytotoxicity of SN38 and SN38@F127@PDA; format: cell-based, human; conditions: BxPc-3, MTS, 72 h treatment
Experimental: as §3, §2

MIA PaCa-2 [9] = test: MTS assay cytotoxicity of SN38 and SN38@F127@PDA; format: cell-based, human; conditions: MIA PaCa-2, MTS, 72 h treatment
Experimental: as §3, §2

- loading content of the drug in F127@PDA NPs [1]: 14.3±4.7 % (w/w)
Compound: CC(=O)O[C@H]1C(=O)[C@@]2(C)[C@H]([C@H](OC(=O)c3ccccc3)[C@]3(O)C[C@H](OC(=O)[C@H](O)[C@@H](NC(=O)c4ccccc4)c4ccccc4)C(C)=C1C3(C)C)[C@]1(OC(C)=O)CO[C@@H]1C[C@@H]2O [PTX, Paclitaxel]

Compound: TAMRA-CONH—PKKKRKVC—COOH ({TAMRA}-PKKKRKVC-OH) [TAMRA-NLS]
- loading content (w/w) of the ligand on functionalized F127@PDA NPs ([1]; Michael addition post-functionalization): 3%

- loading content of the drug in F127@PDA NPs [1]: 11.5±5.7 % (w/w)
Compound: Nc1ccn([C@@H]2O[C@H](CO)[C@@H](O)C2(F)F)c(=O)n1 [Gem, Gemcitabine]

Compound: CCc1c2c(nc3ccc(O)cc13)-c1cc3c(c(=O)n1C2)COC(=O)[C@]3(O)CC [SN38]
- IC50 (PANC-1 [2]): 56.1 nM
- IC50 (AsPC-1 [3]): 52.9 nM
- IC50 (BxPC-3 [4]): 8.91 nM
- IC50 (MIA PaCa-2 [5]): 12.1 nM
- IC50 (PANC-1 [6]): 113 nM
- IC50 (AsPC-1 [7]): 110 nM
- IC50 (BxPC-3 [8]): 56 nM
- IC50 (MIA PaCa-2 [9]): 13.1 nM
